A word on the EC50: it is the concentration that produces a half-maximal response. The IC50 is the concentration at which inhibition is half-maximal.

The subject of one experiment is influenza virus. It counts as cell-based.
In experiment [1] the test system is Oseltamivir resistant strains. Description: microbe, parasite or virus in culture. It counts as cell-based, influenza virus.

Read-outs that look alike come from different tables or passages of the source. Marks after values point to notes of the source that are not given here.

As to `CC(=O)N[C@H]1[C@H]([C@H](OC(=O)NCCCCCCCCCNC(=O)c2cc(C(=O)NCCCCCCCCCNC(=O)O[C@@H]([C@@H]3OC(C(=O)O)=C[C@H](NC(=N)N)[C@H]3NC(C)=O)[C@H](O)CO)c(C(=O)N[C@H](CC(=O)NCS(=O)(=O)O)C(=O)NCS(=O)(=O)O)cc2C(=O)N[C@H](CC(=O)NCS(=O)(=O)O)C(=O)NCS(=O)(=O)O)[C@H](O)CO)OC(C(=O)O)=C[C@@H]1NC(=N)N` [MD185, PK2PYR(Zn)2[(D-Asp)(NHCH2SO3)2]2], the EC50 in the experiment on influenza virus is 0.18/0.097 ng/ml; in the experiment with influenza virus (read-out: EC50), 0.097 nM. Further, the IC50 is 1 ng/mL in experiment [1] (Influenza A virus, H3N2, read-out: IC50, inhibition of plaque number); 1 to 10 ng/mL in experiment [1] (unidentified influenza virus, pH 1, read-out: IC50, inhibition of plaque number); 1 to 10 ng/mL in experiment [1] (unidentified influenza virus, read-out: IC50, inhibition of plaque number). For the same compound, in experiment [1] (pH 1), the “IC50, inhibition of plaque number” value is reported as 1-100^b ng/ml.

On to `CCOC(=O)C1=C[C@@H](OC(CC)CC)[C@H](NC(C)=O)[C@@H](N)C1` [Oseltamivir, reference compound], for which the IC50 in experiment [1] (Influenza A virus, H3N2; read-out: IC50, inhibition of plaque number) was no less than 1000 nM; in experiment [1] (pH 1; read-out: IC50, inhibition of plaque number) it was no less than 10000 nM; in experiment [1] (read-out: IC50, inhibition of plaque number), no less than 10000 nM; in experiment [1] (unidentified influenza virus, pH 1; read-out: IC50, inhibition of plaque number), 100 nM; in experiment [1] (unidentified influenza virus; read-out: IC50, inhibition of plaque number) it was 1000 nM.

Values taken from patent US11007274B2, “Compounds for medicinal applications” (Ausvir Therapeutics Pty LTD, priority 2015, dated 2021).
